Tested on: Human Immunodeficiency Virus (HIV bzw. auch HTLV III oder LAV)
Test: HIV inactivation in suspension test versus 0.7 % formaldehyde
Details: 0,7%ig
Text: Die Wirksamkeit der erfindungsgemässen Zubereitungen gegen den eine AIDS-Infektion verursachenden Human Immunodeficiency Virus (HIV bzw. auch HTLV III oder LAV) im Vergleich zu 0,7%igem Formaldehyd ergab eine um eine Zehnerpotenz höhere Inaktivierung des HIV bei 1%iger Konzentration der erfindungsgemässen Zubereitung 1 in nur 5 Minuten.

`C=O` [Formaldehyd] was tested, and the “toxischer Effekt im Suspensionsversuch” value was “toxischen Effektes”.
